These results are taken from ChEMBL document CHEMBL5584358, “Fungal Coculture of Herpotrichia sp. and Trametes versicolor Induces Production of Diverse Metabolites with Anti-Parkinson's Neuroprotective Activity” (J Nat Prod, 2024).

Activity calls are given as the source filed them. The rule behind the calls is not given here.

The test system of data set [1] is PC-12. As to the kind of experiment: Cytotoxicity against rat PC12 cells assessed as effect on cell viability at 20 uM measured after 24 hrs by CCK-8 assay. The settings on record: pc-12, 24 h. It is filed as toxicity, cell-based. A general note: Formazan colour is commonly taken as a measure of viable cells.
Data set [2] relates to PC-12. Nature of the data set: Neuroprotective activity against MPP+-induced rat PC12 cell death assessed as increase in cell viability preincubated for 1 hr followed by MPP+ addition and measured after 24 hrs by CCK-8 assay. The settings on record: dose 1-20 µM, time 25.0 hrs. The data set is classed as functional, cell-based.
In data set [3] the test system is PC-12. Nature of the data set: Neuroprotective activity against MPP+-induced rat PC12 cell death assessed as cell viability at 20 uM preincubated for 1 hr followed by MPP+ addition and measured after 24 hrs by CCK-8 assay (reference value: 57%). The data set is classed as functional. The settings on record: time 25 hrs, read-out: Activity.
For data set [4], the system named is PC-12. As to the kind of experiment: Neuroprotective activity against MPP+-induced rat PC12 cell death assessed as increase in cell viability at […] preincubated for 1 hr followed by MPP+ addition and measured after 24 hrs by CCK-8 assay. The data set is classed as functional, cell-based. The conditions noted are these: time 25.0 hrs.

Turning to `CC1=C[C@](C)(O)[C@H](C)O[C@H]1/C(C)=C/C=C/C=C/C=C/[C@@]1(C)C2OC(=O)C1(C)C(=O)C2C` (some centres undefined), the Activity result in data set [1] is “Non-Toxic”.
Take `C=C1CC[C@@H](C(C)(C)O)[C@@H]2C[C@H](C)[C@@H](O)C[C@@H]12`: the Activity entry in data set [2] was “Dose-Dependent Effect”; in data set [1], “Non-Toxic”. Moreover, the viability at 20 µM in data set [3] came to 72%.
Take `Cc1ccc([C@@H](C)[C@@H](C[C@@H](O)C(C)(C)O)O[C@@H]2OC[C@@H](O)[C@H](O)[C@H]2O)cc1`: in data set [1], the Activity entry is reported as “Non-Toxic”.
For the molecule `CC(=O)[C@H]1CC[C@H]2C3=C[C@H](O)[C@H]4C[C@H](O)CC[C@]4(C)[C@H]3[C@H](O)C[C@]12C`, the Activity result in data set [2] was “Dose-Dependent Effect”; in data set [1] it was “Non-Toxic”. Also, the viability at 20 µM in data set [3] amounted to 68%.
For the molecule `C=CC1(C)CC/C=C(/C)CCC(C(C)(C)O)O1` (centres undefined) [NEROPLOMACROL], the results for the Activity entry in data set [2] and in data set [1] were “Dose-Dependent Effect” and “Non-Toxic”, respectively. Further, in data set [3], the viability at 20 µM turned out to be 69%.
In the case of `CCC[C@H](O[C@@H]1OC[C@@H](O)[C@H](O)[C@H]1O)c1c(OC)cc(=O)oc1C`, the Activity entry in data set [1] is on record as “Non-Toxic”.
On to `CC(=O)[C@H]1CC[C@@]2(O)C3=CC(=O)[C@@H]4C[C@H](O)CC[C@]4(C)[C@H]3C[C@@H](O)[C@]12C`, for which the Activity result in data set [2] is “Dose-Dependent Effect”; in data set [1], “Non-Toxic”. Besides, in data set [3], the viability at 20 µM was 72%.
Consider `CC/C=C/c1c(OC)cc(=O)oc1CO`, for which the Activity entry in data set [1] was “Non-Toxic”.
Still for that read-out and setting: the result for `C=CC(C)(O)C(O)CC(O)C(C)(O)CCC=C(C)C` (centres undefined) reads “Non-Toxic”.
In the case of `CC(=O)[C@H]1CC[C@H]2C3=CC(=O)[C@H]4C[C@H](O)CC[C@]4(C)[C@H]3[C@H](O)C[C@]12C`, the figures for the Activity result in data set [2] and in data set [1] were “Dose-Dependent Effect” and “Non-Toxic”, respectively. In data set [3], the viability at 20 µM turned out to be 69%.
`COc1cc(=O)oc(C)c1/C=C/CCOC(C)=O`: the Activity entry in data set [1] is listed as “Non-Toxic”.
The same measure, in the same setting: the same measure for `CCC[C@H](O)c1c(OC)cc(=O)oc1C`: “Non-Toxic”; for `CC(C)=CC[C@H](O)[C@@](C)(O)[C@@H](O)C/C=C(/C)[C@H](O)CO`: “Non-Toxic”.
Take `CC(CO)[C@@H]1CC[C@@](C)(O)[C@@H]2CCC(CO)=C[C@H]21` (some centres undefined): the Activity result in data set [2] is “Dose-Dependent Effect”; in data set [1], “Non-Toxic”. Further, the result in data set [4] was Active. The viability at 20 µM in data set [3] is 69%.
Consider `C=C1CC[C@H]2[C@](C)(CO)CC[C@@H](O)[C@]2(C)[C@H]1CO`, for which the Activity result in data set [1] was “Non-Toxic”.
On to `CC1=C[C@@](C)(O)[C@H](C)O[C@H]1/C(C)=C/C=C/C=C/C=C/[C@@]1(C)C2OC(=O)C1(C)C(=O)C2C` (some centres undefined), for which the Activity result in data set [1] was “Non-Toxic”.
